Test systems include TK-10 renal; BT-549 breast; M14 melanoma; CAKI-1 renal; CCRF-CEM leukemia; SF-268 CNS; OVCAR-4 ovarian; EKVX NSCLC.
Common to all, as to experiment: NCI-60 cell line screen, 48 h

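Step 1: Grow cells in 96-well plates. Step 2: Expose to compound for 48 hours at 5 concentrations. Step 3: Interpolate endpoints linearly; if unreached, use highest concentration. GI50 marks 50% less growth. TGI: concentration producing complete growth inhibition.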

Take `COC(=O)/C=C/c1cn(C(C)=O)c2ccc(Br)cc12`: the GI50 in the assay on TK-10 renal is 24.7 µM; in the assay on BT-549 breast, 17.2 µM; with M14 melanoma it was 28.5 µM; in the assay on CAKI-1 renal it was 19.1 µM; in the assay on CCRF-CEM leukemia, 1.44 µM; in the assay with SF-268 CNS it was 26.4 µM. Further, the results for the GI50 in the assay with OVCAR-4 ovarian and in the assay on EKVX NSCLC were 31.4 µM and 28.2 µM, respectively. In addition, the TGI with TK-10 renal is 71.4 µM; with BT-549 breast, 83.6 µM; with M14 melanoma, over 100 µM; in the assay on CAKI-1 renal, 44.2 µM; in the assay on CCRF-CEM leukemia, over 100 µM; in the assay with SF-268 CNS, over 100 µM. The TGI with OVCAR-4 ovarian and in the assay on EKVX NSCLC was over 100 µM in each case.

Regarding `C/C(=C(\c1ccc(OCCN2CCCCCC2)cc1)c1ccc(OC(=O)Cc2ccccc2)cc1)c1ccc(Cl)cc1`, the GI50 with TK-10 renal is 4.43 µM; with BT-549 breast, 2.2 µM; in the assay with M14 melanoma it was 1.87 µM; in the assay with CAKI-1 renal, 2.74 µM; with CCRF-CEM leukemia, 3.2 µM; in the assay with SF-268 CNS, 2.84 µM. The GI50 with OVCAR-4 ovarian was 2.82 µM; in the assay on EKVX NSCLC it was 2.6 µM. Besides, the TGI worked out at 16.6 µM in the assay on TK-10 renal; 4.58 µM in the assay on BT-549 breast; 4.15 µM in the assay on M14 melanoma; 5.37 µM in the assay on CAKI-1 renal; 10.5 µM in the assay on CCRF-CEM leukemia; 6.11 µM in the assay with SF-268 CNS. For the same molecule, the TGI with OVCAR-4 ovarian turned out to be 7.05 µM; with EKVX NSCLC, 7.8 µM.

For `N#CC1=C(N)NC(=S)NC12Nc1ccccc1N2`, the GI50 is 46.4 µM in the assay on TK-10 renal; 33.1 µM in the assay with BT-549 breast; 40 µM in the assay with M14 melanoma; 19.8 µM in the assay with CAKI-1 renal; 18.2 µM in the assay with CCRF-CEM leukemia; 18.6 µM in the assay on SF-268 CNS. The GI50 is over 100 µM in the assay with OVCAR-4 ovarian and 65.6 µM in the assay on EKVX NSCLC. The TGI in the assay with TK-10 renal is over 100 µM; with BT-549 breast it was 91.2 µM; with M14 melanoma, over 100 µM; in the assay with CAKI-1 renal it was over 100 µM; with CCRF-CEM leukemia it was over 100 µM; with SF-268 CNS, over 100 µM. Moreover, the TGI with OVCAR-4 ovarian and with EKVX NSCLC was over 100 µM each time.

On to `CNC(=O)Oc1cc(C)c(/C=C/c2cncc(C(=O)NC)c2)c(C)c1`, for which the GI50 with TK-10 renal was over 25 µM; in the assay on BT-549 breast, over 25 µM; in the assay on M14 melanoma it was 16.8 µM; in the assay on CAKI-1 renal, over 25 µM; in the assay on CCRF-CEM leukemia, 24.8 µM; in the assay on SF-268 CNS, over 25 µM. The GI50 with OVCAR-4 ovarian and in the assay on EKVX NSCLC was over 25 µM throughout. For the same molecule, the TGI in the assay with TK-10 renal, in the assay on BT-549 breast, with M14 melanoma, in the assay on CAKI-1 renal, in the assay on CCRF-CEM leukemia and in the assay with SF-268 CNS was over 25 µM throughout. The TGI with OVCAR-4 ovarian and with EKVX NSCLC was over 25 µM in each case.

In the case of `O=S(=O)(Nc1cc(Cl)ccc1Cl)c1ccc(-c2cnc(C3CC3)o2)cc1`, the GI50 was 13.6 µM with TK-10 renal; 0.449 µM with BT-549 breast; 0.547 µM with M14 melanoma; 0.647 µM in the assay with CAKI-1 renal; 0.592 µM in the assay on CCRF-CEM leukemia; 10.7 µM with SF-268 CNS. Moreover, the GI50 with OVCAR-4 ovarian is 11.8 µM; with EKVX NSCLC it was 5.24 µM. In addition, the TGI is over 100 µM in the assay with TK-10 renal; 14.9 µM in the assay with BT-549 breast; 10.5 µM in the assay on M14 melanoma; 52.1 µM in the assay with CAKI-1 renal; over 100 µM with CCRF-CEM leukemia; 71.3 µM with SF-268 CNS. Moreover, the TGI was over 100 µM with OVCAR-4 ovarian and 85.4 µM in the assay on EKVX NSCLC.

For the molecule `CSc1ncnc2c1ncn2C1OC(CO)C(O)OC1O` (configuration not stated), the TGI with TK-10 renal is 1.19 µM; in the assay on BT-549 breast, 48.5 µM; in the assay with M14 melanoma it was 39.1 µM; in the assay with CAKI-1 renal, over 51.7 µM; in the assay on CCRF-CEM leukemia, 0.402 µM; in the assay with SF-268 CNS it was over 100 µM. For the same molecule, the values for the TGI in the assay on OVCAR-4 ovarian and with EKVX NSCLC were 96.3 µM and over 66.3 µM, respectively.

For `COC(=O)[C@H](Cc1ccc(O)cc1)NC(=O)[C@@H](OC)[C@@H]1Cc2cc3cc(OC4CC(OC5CC(O)C(O)C(C)O5)C(O)C(C)O4)c(C)c(O)c3c(O)c2C(=O)[C@H]1OC1CC(OC2CC(OC3CC(C)(O)C(O)C(C)O3)C(O)C(C)O2)C(O)C(C)O1` (some centres not stated), the GI50 in the assay with TK-10 renal is 0.793 µM; with BT-549 breast, 0.0782 µM; in the assay on M14 melanoma it was 0.204 µM; in the assay with CAKI-1 renal it was 0.45 µM; in the assay on CCRF-CEM leukemia it was 0.111 µM; with SF-268 CNS, 0.199 µM. Also, the figures for the GI50 with OVCAR-4 ovarian and in the assay on EKVX NSCLC were 0.178 µM and 0.152 µM, respectively. Further, the TGI was over 25 µM in the assay with TK-10 renal; 2.09 µM in the assay on BT-549 breast; 6.43 µM with M14 melanoma; over 25 µM in the assay with CAKI-1 renal; over 25 µM in the assay on CCRF-CEM leukemia; over 25 µM in the assay on SF-268 CNS. Also, the TGI in the assay with OVCAR-4 ovarian and with EKVX NSCLC was over 25 µM in each case.

With `COC1CC(NC(=O)C(F)(F)F)C(OC(C)=O)C(C)O1` (configuration not stated), the TGI in the assay on TK-10 renal, in the assay with BT-549 breast, in the assay on M14 melanoma, in the assay with CAKI-1 renal, in the assay on CCRF-CEM leukemia and in the assay on SF-268 CNS was over 100 µM throughout. For the same molecule, the TGI in the assay with OVCAR-4 ovarian and in the assay with EKVX NSCLC was over 100 µM throughout.

Take `C/C(=C\COc1c2c(cc3c1CCO3)OC1(C=C2)OC(CC/C(C)=C/COc2c3ccoc3cc3oc(=O)ccc23)C(C)(C)O1)CCC(O)C(C)(C)O` (configuration not stated): the GI50 was 78.8 µM in the assay with TK-10 renal; 16.7 µM in the assay on BT-549 breast; 85.1 µM in the assay with M14 melanoma; 8.07 µM with CAKI-1 renal; 8.78 µM in the assay with CCRF-CEM leukemia; 21.1 µM with SF-268 CNS. The GI50 is 6.23 µM in the assay on OVCAR-4 ovarian and 5.93 µM in the assay on EKVX NSCLC. The TGI in the assay with TK-10 renal, with BT-549 breast, in the assay with M14 melanoma, in the assay on CAKI-1 renal, in the assay on CCRF-CEM leukemia and in the assay with SF-268 CNS was over 100 µM each time. Besides, the TGI with OVCAR-4 ovarian and in the assay with EKVX NSCLC was over 100 µM in each case.

As for `O=C(NN=C1CCCCC1)c1[nH]c2ccc(F)cc2c1-c1ccccc1`, the GI50 was 91 µM in the assay on TK-10 renal; 57.4 µM in the assay with BT-549 breast; 34.5 µM in the assay on CAKI-1 renal; 17.7 µM in the assay with CCRF-CEM leukemia; 18.9 µM in the assay on SF-268 CNS; 16.9 µM in the assay with OVCAR-4 ovarian. The GI50 in the assay with EKVX NSCLC was 63.2 µM. For the same molecule, the TGI in the assay with TK-10 renal was over 100 µM; in the assay with BT-549 breast it was over 100 µM; in the assay on CAKI-1 renal, over 100 µM; with CCRF-CEM leukemia, over 100 µM; in the assay with SF-268 CNS, over 100 µM; with OVCAR-4 ovarian, 69.4 µM. The TGI in the assay on EKVX NSCLC is over 100 µM.

(Values after PubChem BioAssay (NCI).)
